pIC50: −log10 of the molar value.
Key:
[1] = Cytotoxicity against human HepG2 cells assessed as cell vitality at 5.1 uM after 72 hrs by trypan blue staining based assay (reference value: 1.1 +/- 0.5%); settings: read-out: Activity
[2] = Cytotoxicity against human HepG2 cells assessed as cell vitality at 10.1 uM after 72 hrs by trypan blue staining based assay (reference value: 1.1 +/- 0.5%); settings: read-out: Activity
[3] = Cytotoxicity against human HepG2 cells assessed as cell viability at 0.1 uM after 72 hrs by WST1 assay (reference value: 100%); assay type: cell-based; settings: read-out: Activity
HepG2 [4] = assay: Cytotoxicity against human HepG2 cells assessed as cell vitality at 0.4 uM after 72 hrs by trypan blue staining based assay (reference value: 1.1 +/- 0.5%); settings: hepg2, 72 h
[5] = Cytotoxicity against human HepG2 cells assessed as cell viability at 5.1 uM after 72 hrs by WST1 assay (reference value: 100%); assay type: cell-based; settings: read-out: Activity
[6] = Cytotoxicity against human HepG2 cells assessed as cell viability at 10.1 uM after 72 hrs by WST1 assay (reference value: 100%); assay type: cell-based; settings: read-out: Activity
[7] = Cytotoxicity against human HepG2 cells assessed as cell viability at 0.4 uM after 72 hrs by WST1 assay (reference value: 100%); assay type: cell-based; settings: read-out: Activity
HepG2 [8] = assay: Cytotoxicity against human HepG2 cells assessed as cell viability after 72 hrs by WST1 assay; assay type: cell-based; settings: for pIC50: Homo sapiens, HepG2, 72 h; for Activity: human, hepg2, 72 h
HepG2 [9] = assay: Cytotoxicity against human HepG2 cells assessed as cell vitality at 2.5 uM after 72 hrs by trypan blue staining based assay (reference value: 1.1 +/- 0.5%); settings: hepg2, 72 h
HepG2 [10] = assay: Cytotoxicity against human HepG2 cells assessed as cell vitality at 1.3 uM after 72 hrs by trypan blue staining based assay (reference value: 1.1 +/- 0.5%); settings: hepg2, 72 h
[11] = Cytotoxicity against human HepG2 cells assessed as cell viability at 2.5 uM after 72 hrs by WST1 assay (reference value: 100%); assay type: cell-based; settings: read-out: Activity
HepG2 [12] = assay: Cytotoxicity against human HepG2 cells assessed as cell vitality after 72 hrs by trypan blue staining based assay; settings: hepg2, 72 h
[13] = Cytotoxicity against human HepG2 cells assessed as cell viability at 1.3 uM after 72 hrs by WST1 assay (reference value: 100%); assay type: cell-based; settings: read-out: Activity
HepG2 [14] = assay: Cytotoxicity against human HepG2 cells assessed as cell vitality at 0.1 uM after 72 hrs by trypan blue staining based assay (reference value: 1.1 +/- 0.5%); settings: hepg2, 72 h

SMILES | viability at 72 h, 5.1 µM [1] | viability at 72 h, 10.1 µM [2] | viability at 72 h, 0.1 µM [3] | Activity (HepG2 [4]) | viability at 72 h, 5.1 µM [5] | viability at 72 h, 10.1 µM [6] | viability at 72 h, 0.4 µM [7] | pIC50 (HepG2 [8]) | Activity (HepG2 [8]) | Activity (HepG2 [9]) | Activity (HepG2 [10]) | viability at 72 h, 2.5 µM [11] | Activity (HepG2 [12]) | viability at 72 h, 1.3 µM [13] | Activity (HepG2 [14])
C=C(C)[C@@H]1NC(=O)[C@H](N(C)C)[C@H](O)c2cc(Cl)c(O)c(c2)O[C@](C)(CC)[C@@H](C(=O)N2CC=C[C@H]2C(=O)N/C(C(=O)N/C(=C/C(=O)O)C(=O)O)=C(\C)CC)NC1=O | 18.4% | 29.8% | 105% | 0.9% | 46% | 37% | 101% | 5.21 | Dose-dependent effect | 7.7% | 4.7% | 61% | Dose-dependent effect | 85% | 0.9%
C=C(C)[C@@H]1NC(=O)[C@H](NC)[C@H](O)c2cc(Cl)c(O)c(c2)O[C@](C)(CC)[C@@H](C(=O)N2CC=C[C@H]2C(=O)N/C(C(=O)N/C(=C/C(=O)O)C(=O)O)=C(\C)CC)NC1=O | 9% | 17% | 106% | 1.1% | 57% | 48% | 105% | 5.09 | Dose-dependent effect | 4.3% | 1.6% | 83% | Dose-dependent effect | 99% | 0.5%

Reference: ChEMBL document CHEMBL4190219, “Detection of a Toxic Methylated Derivative of Phomopsin A Produced by the Legume-Infesting Fungus Diaporthe toxica” (J Nat Prod, 2017)
